{"source": "patent US9499862B2", "about": "“Phospholinked dye analogs with an amino acid linker” (Pacific Biosciences of California, Inc., priority 2010, dated 2016)", "system": "DNA polymerase", "details": "for 2SS characteristics: two slow step character, equals K1/K2; for K1 (S-1) / K2 (S-1): two slow step results, single molecule DNA sequencing, cyanine dye conjugate", "source_text": "In some cases, the system will have four kinetically observable (slow) reaction steps, two slow steps in a bright phase and two slow steps in a dark phase.", "data": [{"smiles": "CC1(C)C(/C=C/C=C/C=C2/N(CCCCCC(=O)NC(CCC(=O)O)C(=O)NC(CCC(=O)O)C(=O)NCCCCCCOP(=O)(O)OP(=O)(O)OP(=O)(O)OC[C@H]3O[C@@H](n4ccc(N)nc4=O)CC3O)c3ccc4c(S(=O)(=O)O)cc(S(=O)(=O)O)cc4c3C2(C)C)=[N+](CCCS(=O)(=O)[O-])c2ccc3c(S(=O)(=O)O)cc(S(=O)(=O)O)cc3c21", "note": "(stereo partly drawn) [2Glu-tri-phosphate]", "values": [{"measurement": "2SS characteristics", "value": 7.3}, {"measurement": "K1 (S-1)", "value": 7.898, "unit": "S-1"}, {"measurement": "K2 (S-1)", "value": 1.082, "unit": "S-1"}]}, {"smiles": "CC1(C)C(/C=C/C=C/C=C2/N(CCCCCC(=O)NC(CCCCN)C(=O)NC(CCCCN)C(=O)NCCCCCCOP(=O)(O)OP(=O)(O)OP(=O)(O)OC[C@H]3O[C@@H](n4ccc(N)nc4=O)CC3O)c3ccc4c(S(=O)(=O)O)cc(S(=O)(=O)O)cc4c3C2(C)C)=[N+](CCCS(=O)(=O)[O-])c2ccc3c(S(=O)(=O)O)cc(S(=O)(=O)O)cc3c21", "note": "(stereo partly drawn) [2Lys-tri-phosphate]", "values": [{"measurement": "2SS characteristics", "value": 6.5}, {"measurement": "K1 (S-1)", "value": 2.645, "unit": "S-1"}, {"measurement": "K2 (S-1)", "value": 0.406, "unit": "S-1"}]}]}
